Results from paper PMC3958783, “Molybdenum Reduction to Molybdenum Blue in Serratia sp. Strain DRY5 Is Catalyzed by a Novel Molybdenum-Reducing Enzyme” (BioMed Research International, 2014).
pIC50: −log10 of the molar value. Where two headings read alike, the source gives them in different places.

Tests used:
Mo-reducing enzyme [1] = test system: T1, Mo-reducing enzyme; assay: initial rates of Mo blue formation, absorbance at […] nm, nonlinear regression; format: biochemical, Serratia sp. DRY5; conditions: assay 50 mM citrate phosphate pH 5.0, room temperature, read-out: apparent Km
T1 construct: native protein purified from cytoplasmic fraction (Mono Q twice, Zorbax GF-250); monomer, 105 kDa by gel filtration, 100 kDa by SDS-PAGE

Mo-reducing enzyme [2] = target: T1, Mo-reducing enzyme; assay: Mo blue formation assay, […] nm; format: biochemical, Serratia sp. DRY5; conditions: general reagent, assay with 12-MP and NADH; for pIC50: read-out: Concentrations which decrease enzyme activity by 50%

Molecule: 12-MP
- Km (Mo-reducing enzyme [1]; 5 mM NADH, electron acceptor): 3870 µM

Molecule: OCCS [2-Mercaptoethanol]
- pIC50 (Mo-reducing enzyme [2]; thiol): 2.30

Molecule: OC(CS)C(O)CS (stereo not drawn) [DTT]
- pIC50 (Mo-reducing enzyme [2]; thiol): 2.00

Molecule: O=C(O)CN(CCN(CC(=O)O)CC(=O)O)CC(=O)O [EDTA]
- pIC50 (Mo-reducing enzyme [2]; metal chelator): 4.00

Molecule: NC(=O)C1=CN([C@@H]2O[C@H](COP(=O)(O)OP(=O)(O)OC[C@H]3O[C@@H](n4cnc5c(N)ncnc54)[C@H](O)[C@@H]3O)[C@@H](O)[C@H]2O)C=CC1 [NADH]
- Km (Mo-reducing enzyme [1]; 15 mM 12-MP, electron donor): 790 µM

Molecule: CCCCCCCCCCCCOS(=O)(=O)O [SDS]
- Concentrations which decrease enzyme activity by 50% (Mo-reducing enzyme [2]; denaturing detergent): 0.1%
